Measured values as given in US10155749B2, “Substituted benzimidazolium compounds useful in the treatment of respiratory diseases” (Boehringer Ingelheim International GmbH, priority 2015, dated 2018).

The compounds below were run against T1, ENaC (Epithelial Sodium Channel) (Mus musculus, UniProt Q61180+Q9WU38+Q9WU39) (assay: Ussing Chamber assay (short circuit current, amiloride sensitive I_SC) in M-1 cells). Conditions: Mouse kidney M-1 cells, apical application, 37° C.
T1 construct: Mouse kidney M-1 cells were cultivated in DMEM containing 5% FCS and 5 μM dexamethasone; endogenous in cells; host or cells: Mouse kidney M-1 cells
T1 sequence (Q61180 1-699): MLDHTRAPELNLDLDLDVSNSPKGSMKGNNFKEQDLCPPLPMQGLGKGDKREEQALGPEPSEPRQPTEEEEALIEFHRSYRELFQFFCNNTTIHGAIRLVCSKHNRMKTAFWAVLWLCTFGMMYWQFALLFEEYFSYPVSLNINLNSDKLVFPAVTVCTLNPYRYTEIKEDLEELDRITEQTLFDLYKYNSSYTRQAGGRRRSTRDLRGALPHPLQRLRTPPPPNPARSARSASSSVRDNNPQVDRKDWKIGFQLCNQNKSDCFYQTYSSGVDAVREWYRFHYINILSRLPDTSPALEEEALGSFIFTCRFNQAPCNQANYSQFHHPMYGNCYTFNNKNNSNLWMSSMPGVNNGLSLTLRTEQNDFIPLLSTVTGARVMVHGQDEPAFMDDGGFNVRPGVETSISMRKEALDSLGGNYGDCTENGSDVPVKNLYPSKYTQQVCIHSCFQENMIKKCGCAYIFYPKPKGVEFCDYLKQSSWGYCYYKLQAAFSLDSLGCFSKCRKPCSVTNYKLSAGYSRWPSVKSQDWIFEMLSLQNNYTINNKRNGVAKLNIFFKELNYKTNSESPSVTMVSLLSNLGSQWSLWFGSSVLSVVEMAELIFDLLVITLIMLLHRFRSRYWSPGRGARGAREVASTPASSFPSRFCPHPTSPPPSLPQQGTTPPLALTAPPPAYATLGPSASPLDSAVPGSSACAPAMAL
T1 sequence (Q9WU38 1-638): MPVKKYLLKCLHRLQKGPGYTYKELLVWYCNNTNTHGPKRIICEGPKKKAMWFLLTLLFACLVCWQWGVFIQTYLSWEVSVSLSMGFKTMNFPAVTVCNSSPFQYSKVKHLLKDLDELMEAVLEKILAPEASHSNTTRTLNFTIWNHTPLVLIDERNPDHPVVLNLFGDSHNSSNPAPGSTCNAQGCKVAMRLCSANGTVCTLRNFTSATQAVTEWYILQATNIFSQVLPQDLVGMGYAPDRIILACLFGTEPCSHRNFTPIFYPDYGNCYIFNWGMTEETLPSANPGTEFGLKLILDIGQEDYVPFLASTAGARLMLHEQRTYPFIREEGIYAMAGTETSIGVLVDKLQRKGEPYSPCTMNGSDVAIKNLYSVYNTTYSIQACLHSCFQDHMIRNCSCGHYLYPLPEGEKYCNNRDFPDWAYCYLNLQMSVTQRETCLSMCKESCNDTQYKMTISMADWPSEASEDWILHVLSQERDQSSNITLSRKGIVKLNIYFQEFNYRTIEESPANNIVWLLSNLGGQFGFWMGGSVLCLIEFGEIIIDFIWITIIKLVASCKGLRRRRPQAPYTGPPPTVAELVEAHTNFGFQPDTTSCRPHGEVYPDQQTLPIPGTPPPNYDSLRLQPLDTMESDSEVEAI
T1 sequence (Q9WU39 1-655): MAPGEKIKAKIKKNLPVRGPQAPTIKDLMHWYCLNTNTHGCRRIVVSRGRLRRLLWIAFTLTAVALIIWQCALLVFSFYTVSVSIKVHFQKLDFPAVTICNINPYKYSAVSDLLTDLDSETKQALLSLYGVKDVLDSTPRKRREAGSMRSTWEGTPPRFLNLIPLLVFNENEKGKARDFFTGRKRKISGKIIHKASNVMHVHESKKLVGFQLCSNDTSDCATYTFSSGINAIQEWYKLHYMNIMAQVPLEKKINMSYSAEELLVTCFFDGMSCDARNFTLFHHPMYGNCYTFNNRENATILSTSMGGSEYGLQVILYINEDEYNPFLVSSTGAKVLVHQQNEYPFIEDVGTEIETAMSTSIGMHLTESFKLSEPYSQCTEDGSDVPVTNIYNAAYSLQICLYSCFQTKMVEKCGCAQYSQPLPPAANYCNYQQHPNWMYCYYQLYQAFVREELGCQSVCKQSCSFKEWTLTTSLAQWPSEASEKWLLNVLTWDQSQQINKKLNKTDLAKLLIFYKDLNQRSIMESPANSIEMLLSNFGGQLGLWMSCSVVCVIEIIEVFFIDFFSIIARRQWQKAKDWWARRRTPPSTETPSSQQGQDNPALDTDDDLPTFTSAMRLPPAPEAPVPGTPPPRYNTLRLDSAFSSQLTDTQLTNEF
Assay type: cell-based
Method: The IC50 values of the example compounds given above were determined in the Ussing Chamber assay.
Ussing Chamber: Mouse kidney M-1 cells were cultivated in DMEM containing 5% FCS and 5 μM dexamethasone for 10 to 12 days on polyester transwell filters. Filters were inserted into a teflon-coated well-plate which fit into the ussing chamber system. Prior to measurement the medium of M-1 cells was replaced with Caco-2 transport buffer (Invitrogen, Germany). During measurements, the Ussing chamber temperature was kept at 37° C. Short circuit currents (I_sc) were measured in the voltage-clamp mode with the software package Lab View for data acquisition and analysis. The transepithelial electrical resistance (TEER) was determined by the application of voltage steps of ±5 mV every 5 sec. Compounds were administered at a final concentration of 3 μM or at increasing concentrations (1-3-10 μM) to the apical solution. At the end of each experiment the amiloride sensitive I_SC was measured by adding 3 μM amiloride to the apical compartment. Results are expressed as inhibition in percent of the amiloride effect or as IC50.
With CCn1c(CNC(=O)c2nc(Cl)c(N)nc2N)[n+](CC)c2ccc(CNC(=O)Cc3ncccc3O)cc21 [Example 4.03] the IC50 was 0.4 nM.
Work on CCCn1c(CNC(=O)c2nc(Br)c(N)nc2N)[n+](C)c2ccc(OCC(=O)N(C)Cc3nc(C)ccc3O)cc21 [Example 2.01] yielded an IC50 of 1 nM.
For CCn1c(CNC(=O)c2nc(Cl)c(N)nc2N)[n+](CC)c2ccc(OCC(=O)NCCN)cc21 [Example 3.25], the IC50 was 1 nM.
CCCCCOc1cc2c(cc1C(=O)N1CCN(C(=O)c3cncc(O)c3)CC1)[n+](CC)c(CNC(=O)c1nc(Cl)c(N)nc1N)n2C[C@H](C)O [Example 4.18] showed an IC50 of 19 nM.
For CCOc1cc2c(cc1C(=O)N1CCN(C(=O)OC(C)(C)C)CC1)[n+](CC)c(CNC(=O)c1nc(Cl)c(N)nc1N)n2CC [Example 1.09], the IC50 was 7 nM.
CCNC(=O)COc1cc2c(cc1C(=O)NC1CCN(C(=O)OC(C)(C)C)CC1)[n+](CC)c(CNC(=O)c1nc(Cl)c(N)nc1N)n2CC [Example 3.23] gave an IC50 of 8 nM.
CCn1c(CNC(=O)c2nc(Cl)c(N)nc2N)[n+](CC)c2ccc(C(=O)NCCNC(C)=O)cc21 [Example 3.08] showed an IC50 of 0.4 nM.
Compound CCn1c(CNC(=O)c2nc(Cl)c(N)nc2N)[n+](CC)c2cc(C(=O)N3CCN(C(=O)N4CCOCC4)CC3)c(F)cc21 [Example 3.15] has an IC50 of 1 nM.
For CCNC(=O)c1cc2c(cc1OCC(=O)OC(C)(C)C)n(CC)c(CNC(=O)c1nc(Cl)c(N)nc1N)[n+]2CC [Example 1.11], the IC50 was 10 nM.
CCCCCOc1cc2c(cc1C(=O)N1CCN(C(=O)OC(C)(C)C)CC1)[n+](CC)c(CNC(=O)c1nc(Cl)c(N)nc1N)n2C[C@H](C)O [Example 1.10] was tested, and the IC50 was 52 nM.
With CCn1c(CNC(=O)c2nc(Cl)c(N)nc2N)[n+](CC)c2ccc(OCCNC(=O)CN3CCOCC3)cc21 [Example 4.02] the IC50 was 2 nM.
Work on CCn1c(CNC(=O)c2nc(Cl)c(N)nc2N)[n+](CC)c2ccc(C(=O)NCCNS(C)(=O)=O)cc21 [Example 3.14] yielded an IC50 of 0.4 nM.
In the case of CCCCCOc1cc2c(cc1C(=O)N1CCNCC1)[n+](CC)c(CNC(=O)c1nc(Cl)c(N)nc1N)n2C[C@H](C)O [Example 8.03], the IC50 is reported as 8 nM.
CCNC(=O)c1cc2c(cc1OCC(=O)NCCOC)n(CC)c(CNC(=O)c1nc(Cl)c(N)nc1N)[n+]2CC [Example 3.21] showed an IC50 of 9 nM.
With CCNC(=O)CN1CCC(NC(=O)c2cc3c(cc2F)[n+](CC)c(CNC(=O)c2nc(Cl)c(N)nc2N)n3CC)CC1 [Example 3.10] the IC50 was 1 nM.
CCn1c(CNC(=O)c2nc(Cl)c(N)nc2N)[n+](CC)c2ccc(OCCNC(=O)CN3CCCC3)cc21 [Example 4.07] gave an IC50 of 1 nM.
